Test results reported in US20240335395A1, “COMPOSITIONS AND METHODS FOR PREVENTING AND/OR TREATING DISEASE ASSOCIATED WITH IL-23 EXPRESSION” (ALLSPIM, priority 2021, published 2024).

Experiments:
[1] = tested on: IL-17/IL-23 and TNF signature cytokines and chemokines; experiment: Release of IL-17/IL-23 and TNF signature cytokines and chemokines into supernatant of LPS-stimulated THP-1 cells (ELISA); assay type: cell-based, human; conditions: 24 h
Method: (§1) Sample Collection and Preparation. THP-1 cells, a human leukemia monocyte-derived cell line, have been widely used as a model to study the modulation of the immune response and the function of monocytes and monocyte-derived macrophages. Here, lipopolysaccharide (LPS)-stimulated THP-1 cells were used as a model to study the cytokine storm in vitro (Chanput et al., 2014). THP-1 cells (purchased from American Type Culture Collection, Rockville, MD) were grown in RPMI 1640 culture medium (Gibco) supplemented with 10% fetal bovine serum (FBS) (Gibco, UK), 0.05 mM 2-mercaptoethanol, and 1% penicillin/streptomycin (Invitrogen) at 37° C. in 5% CO2 in a humidified incubator. Cultured cells were plated into culture plates in appropriate volumes with a cell density of 5×10^5 cells/ml. 2,4-D was purchased from Wuhan ChemFaces Biochemical Co., Ltd (Hubei, China) and tested for cytotoxicity in THP-1 cells overnight using a commercial MTT Cell Proliferation and Cytotoxicity Assay Kit (Beyotime, Shanghai, China). […]
ELISA. […] Culture supernatants were measured according to the manufacturer's instructions. A Varioskan LUX microplate reader (Thermo Fisher, USA) was used for the assay and 4-parameter logistic regression was used for data analysis. […] Data are expressed as mean±SD. […]

[2] = tested on: MSU-induced knee joint edema; experiment: MSU-induced knee joint edema in mice; assay type: in vivo, mouse; conditions: 20 h
Method: (§2) 2,4-D, isolated and purified from Chloranthus spicatus (purity≥98%), was purchased from BOC Science (Shirley, NY). Colchicine (CLC) (purity≥96%) and dexamethasone (DEX) (purity≥98%) were purchased from Sigma. Mice (six per group) were treated with 2,4-D (100 mg/kg or 20 mg/kg, i.p.), CLC (1 mg/kg or 0.2 mg/kg, i.p.), DEX (0.5 mg/kg or 0.1 mg/kg, i.p.), or vehicle (20% polyoxyethylenesorbitan monooleate (Tween 80) plus PBS) 30 min before intra-articular stimulus with MSU (100 μg/10 μL, i.a.). Six mice with intra-articular injection with PBS alone served as a negative control.
Preparation of monosodium urate crystal (MSU). MSU crystals were prepared as described previously (Ruiz-Miyazawa et al., 2017). Briefly, 800 mg of monosodium urate was dissolved in 155 ml of boiling milli-Q water containing 2N NaOH. After pH adjustment to 8.9, the solution was cooled gradually by stirring at room temperature and crystallized overnight at 4° C. Crystals were collected, and centrifuged at 3,000×g for 2 min at 4° C. The crystals were evaporated and sterilized by heating at 180° C. for 2 h and stored in a sterile environment until use. The load of endotoxin present in the MSU crystals was determined using a ToxinSensor^TM Single Test Kit (GenScript).
(§3) Induction of MSU-Induced Knee Joint Inflammation. Male ICR (CD-1) mice (35-45 g, 10-12 weeks) were purchased from VitalRiver Inc (Beijing, China) and were kept in an animal care facility under controlled temperature of 21±1° C., humidity, and on a light/dark cycle, with ad libitum access to water and standard laboratory chow diet. Animal care and handling procedures were approved by the Animal Ethics Committee of GZUCM (Guangzhou University of Chinese Medicine). All efforts were made to minimize animal suffering and to reduce the number of animals used. Joint inflammation was induced by the intra-articular (i.a.) administration of MSU (200 μg/20 μl) into the right and left knee joints of mice under inhaled 3% isoflurane anesthesia. Control animals received an injection (i.a.) of sterile PBS (20 μL).
Evaluation of Knee Joint Edema. Knee joint edema was determined with a caliper (Mitutoyo) before (zero time), and after the intra-articular injection with MSU at the times indicated. Knee joint edema was determined for each mouse by the difference between the time points indicated on figures and the zero time (Ruiz-Miyazawa et al, 2017). The edema value is represented as Amm/joint.
Statistical Analysis. Data were analyzed using GraphPad Prism statistical software (GraphPad Software, Inc., United States-500.288, version 5.0). Results are presented as means±SEM or SD of measurements made on 6 mice per group, with statistical significance determined by two-way ANOVA, comparing each group to the control (“Model”) group. For in vitro experiments, microassays were performed in quadruplicate. p<0.05 was considered significant (*p<0.05, **p<0.01, ***p<0.001).

[3] = tested on: MSU-induced leukocyte recruitment; experiment: MSU-induced leukocyte recruitment to the synovial cavity of knee joint; assay type: in vivo, mouse; conditions: 20 h; 2,4-D 100 mg/kg, CLC 1 mg/kg, DEX 0.5 mg/kg
Method: as §2, §3
Histopathological Analysis. Knee joint was collected 20 h after MSU injection, fixed with 10% paraformaldehyde in PBS, and then decalcified for 10 days with EDTA and embedded in paraffin for histological analysis. […] Results are expressed as leukocytes infiltrate (cell/field) counted at the inflammatory foci within synovial cavity as indicative of synovitis. […]
Statistical Analysis. Data were analyzed using GraphPad Prism statistical software (GraphPad Software, Inc., United States-500.288, version 5.0). Results are presented as means±SEM or SD of measurements made on 6 mice per group, with statistical significance determined by two-way ANOVA, comparing each group to the control (“Model”) group. […]

IL-1ß = experiment: MSU-induced IL-1ß in knee joint tissue (multiplex microassay); assay type: in vivo, mouse; conditions: 2,4-D 100 mg/kg, CLC 1 mg/kg, DEX 0.5 mg/kg
Method: (§4) Mice (six per group) were treated with 2,4-D (100 mg/kg or 20 mg/kg, i.p.), CLC (1 mg/kg or 0.2 mg/kg, i.p.), DEX (0.5 mg/kg or 0.1 mg/kg, i.p.), or vehicle (20% polyoxyethylenesorbitan monooleate (Tween 80) plus PBS) 30 min before intra-articular stimulus with MSU (100 μg/10 μL, i.a.). Six mice with intra-articular injection with PBS alone served as a negative control.
as §3
(§5) Cytokine Measurement. Mice were anesthetized and sacrificed. Knee joints were collected and frozen in liquid nitrogen. Samples were then homogenized in 500 μl of buffer containing protease inhibitors, centrifuged (3600 rpm, 4° C., 15 min) and supernatants were used to determine Th1/Th2/Th17 cytokine levels using a multiplex microassay (Qantibody® mouse TH17 Array 1 kit, Cat. No.: QAM-TH17-1; RayBiotech, Norcross, GA). Results were expressed as picograms (pg) of cytokine/mg of tissue.
(§6) Statistical Analysis. […] For in vitro experiments, microassays were performed in quadruplicate. p<0.05 was considered significant (*p<0.05, **p<0.01, ***p<0.001).

IL-6 = experiment: MSU-induced IL-6 in knee joint tissue (multiplex microassay); assay type: in vivo, mouse; conditions: 2,4-D 100 mg/kg, CLC 1 mg/kg, DEX 0.5 mg/kg
Method: as §4, §3, §5, §6

IL-10 = experiment: MSU-induced IL-10 in knee joint tissue (multiplex microassay); assay type: in vivo, mouse; conditions: 2,4-D 100 mg/kg, DEX 0.5 mg/kg
Method: as §4, §3, §5, §6

TNF-alpha = experiment: MSU-induced TNF-alpha in knee joint tissue (multiplex microassay); assay type: in vivo, mouse; conditions: 2,4-D 100 mg/kg, CLC 1 mg/kg, DEX 0.5 mg/kg
Method: as §4, §3, §5, §6

[4] = tested on: IL-17/IL-23 and TNF signaling pathway-associated cytokine genes and chemokine genes; experiment: Transcription of IL-17/IL-23 and TNF signature genes in LPS-stimulated THP-1 cells (qPCR); assay type: cell-based, human; conditions: 2 h; RPM 5-20 μM
Method: as §1
Real-Time Quantitative PCR. Real-time quantitative PCR was performed in triplicate using the TB Green qPCR master mix (Takara Biomedical Technology Co., Ltd, Dalian, China) on an ABI 7500 Real-Time PCR System (Thermo, USA). […] The ΔΔCT method was used to quantify relative mRNA levels as described above in Example 1 (Applied Biosystems). Data are expressed as mean±SD. […]

Compound | reduction of release of IL-10, CCL2/MCP-1, CCL3/MIP-1alpha and CCL20/MIP-3alpha ([1]; DEX) | reduction of MSU-induced knee joint edema ([2]; high dose i.p.: 2,4-D 100 mg/kg, CLC 1 mg/kg, DEX 0.5 mg/kg) [%] | reduction of MSU-induced knee joint edema ([2]; low dose i.p.: 2,4-D 20 mg/kg, DEX 0.1 mg/kg) [%] | reduction of MSU-induced leukocyte recruitment [3] [fold] | decrease of IL-1ß in knee joint tissue (IL-1ß) [fold] | decrease of IL-6 in knee joint tissue (IL-6) | decrease of IL-10 in knee joint tissue (IL-10) [fold] | decrease of TNF-alpha in knee joint tissue (TNF-alpha) [fold] | inhibition of transcription of Tnf, Il1ß, Ccl2 and Ccl3 [4] [fold] | inhibition at 20 µM ([1]; Homo sapiens, THP-1, 20 μM, read-out: inhibition of release of IL-1ß, IL-10, TNF-alpha, CCL2/MCP-1, CCL3/MIP-1alpha and CCL20) [%]
C[C@@H]1C[C@H]2[C@@H]3CCC4=CC(=O)C=C[C@]4(C)[C@@]3(F)[C@@H](O)C[C@]2(C)[C@@]1(O)C(=O)CO [DEX, dexamethasone] | 50-90% | 38.9 | 16.8 | 2.2 | 1.9 | no effect | 1.5 | 2.0 |  | 
CO[C@H]1C[C@@H]2CC[C@@H](C)[C@@](O)(O2)C(=O)C(=O)N2CCCC[C@H]2C(=O)O[C@H]([C@H](C)C[C@@H]2CC[C@@H](O)[C@H](OC)C2)CC(=O)[C@H](C)/C=C(\C)[C@@H](O)[C@@H](OC)C(=O)[C@H](C)C[C@H](C)/C=C/C=C/C=C/1C [Rapamycin, rapamycin, reference compound] |  |  |  |  |  |  |  |  | ≤ 50 | < 50
